Test results reported in publication PMC8464939, “Epicatechin Gallate as Xanthine Oxidase Inhibitor: Inhibitory Kinetics, Binding Characteristics, Synergistic Inhibition, and Action Mechanism” (Foods, 2021).
Where two headings read alike, the source gives them in different places. One block for each compound: values may come before it.

Legend:
xanthine oxidase (XO) [1] = target: T1, xanthine oxidase (XO) (Bos taurus, UniProt P80457); test: XO activity assay (uric acid formation, absorbance at 293 nm); format: biochemical, bovine
xanthine oxidase (XO) [2] = target: T1, xanthine oxidase (XO); test: Kinetic analysis of enzyme-catalyzed reaction (Lineweaver–Burk); format: biochemical, bovine
From the text: The same determination method of enzyme activity was used to conduct the inhibition kinetics analysis of ECG on XO. In the presence of a series of different concentrations of ECG, the concentration of XO or xanthine was changed to determine the catalytic rate, and then the inhibition type was ascertained by the Lineweaver-Burk plots in double reciprocal form. […] Km, Ki, and α are on behalf of the Michaelis-Menten constant, dissociation constant, and apparent coefficient, respectively.

[3] = DPPH radical scavenging activity assay; conditions: ECG 15 μM
Experimental: The DPPH free radical scavenging activity of ECG was tested according to Aalim et al. with slight modification. DPPH was dissolved in ethanol, and then different concentrations of ECG were added to prepare a series of samples. The mixed solutions were protected from light and reacted for 30 min. The absorbance of the samples at 517 nm was determined by an enzyme-labeled instrument (Varioskan LUX, Thermo Fisher Scientific, Waltham, MA, USA). An equal volume of ethanol was used as a control. The free radical scavenging activity of ECG was assessed by the change of percentage in absorbance.

[4] = O2− radical scavenging activity assay (PMS–NADH system, NBT); conditions: ECG 45.0 μM
Experimental: NBT could be reduced to blue formazan by O2^− radical produced by the PMS–NADH system; thus, this method was used to evaluate the O2^− radical scavenging activity of ECG [33]. The reaction solutions were prepared by mixing NBT (55.0 μM), NADH (0.27 mM), and different concentrations of ECG, and then 0.2 mL PMS (0.155 mM) was added to initiate the reaction. After the samples were incubated for 15 min, the absorbance at 560 nm was measured. Ethanol was used instead of ECG as the blank group, and the values of decreasing percentage in absorbance were calculated to analyze the scavenging activity of ECG.

xanthine oxidase (XO) [5] = target: T1, xanthine oxidase (XO); test: Inhibition of O2− radical generated by XO (NBT); format: biochemical, bovine; conditions: XO 0.7 μM
Experimental: The O2^− radicals generated during the catalytic process of XO could also be used to assess the antioxidant activity of ECG. The XO (0.70 μM) and different concentrations of ECG were mixed in Tris–HCl buffer and incubated at 37 °C for 30 min. Then, NBT (55.0 μM) and xanthine were added to the samples, respectively, and the absorbance of the mixture at 560 nm was recorded. A small amount of Triton X−100 (0.2%, v/v) was added for solubilization and the control group was equal volume ethanol.

xanthine oxidase (XO) [6] = target: T1, xanthine oxidase (XO); test: Fluorescence titration experiments (quenching, binding, thermodynamics, 3D fluorescence); set-up: species or system bovine
Experimental: At three experimental temperatures (25, 31, and 37 °C), XO (1.0 μM) diluted in the Tris–HCl solution was placed in a 1.0 cm cuvette, and then ECG (0–30.0 μM) was added into XO solution successively to conduct the fluorescence titration experiments. After each addition, the fluorescence spectra of the mixed solutions within 300–500 nm were scanned at an excitation wavelength of 280 nm using a fluorescence photometer (F–7000, Hitachi, Japan). The width of the excitation and emission slit was 2.5 nm, respectively. Similarly, the synchronous fluorescence spectra of XO titrated by ECG were measured by setting the difference between excitation and emission wavelength (Δλem) to 15 and 60 nm, respectively. The free XO solution and a mixed sample of XO and ECG were prepared, and then the three-dimensional (3D) fluorescence spectra of the samples were determined; the scanning ranges of both excitation and emission wavelength were 200–600 nm. All fluorescence data were corrected to subtract the internal filtering effect by the following equation [34]:(4) Fc=Fme^(A1+A2)/2 where Fc and Fm represent the […] fluorescence intensity values, respectively; A1 and A2 are the absorbances of ECG at the excitation and emission wavelengths, respectively.
The changes of fluorescence spectra can reflect the binding characteristics between inhibitor and enzyme. […] The specific quenching mechanism of ECG on XO was determined by the relationship between quenching constant (KSV) and temperature, and the values of KSV and Kq (the quenching rate constant) were calculated by the well-known Stern–Volmer equation [44]. (6) F0/F=1+KSVQ=1+Kqτ0Q where F and F0 represent the fluorescence intensity values of XO with and without ECG, respectively; Q is the concentration of ECG; the value of the average fluorescence lifetime of fluorophore for biomacromolecules (τ0) is 10^−8 s. […] Furthermore, the binding constant (Ka) and the number of binding sites (n) were calculated through the following formula:(7) logF0−F/F=nlogKa−nlog1/Qt−(F0−F)Pt/F0 where [Qt] and [Pt] represent the concentrations of ECG and XO, respectively. […] The n values were close to 1, reflecting that XO had only one class of binding sites for ECG, which was consistent with the conclusions of enzyme kinetics analysis.
The values of thermodynamic parameters of the binding process between ECG and XO, such as entropy change (ΔS°), enthalpy change (ΔH°), and free energy change (ΔG°), were obtained by the van ‘t Hoff equation:
(9) ΔG=ΔH°−TΔS° where R is the gas constant (8.314 J mol^−1 K^−1), and T is the temperatures of fluorescence titration experiments (25, 31, and 37 °C). […] A similar study reported that the formation of the ECG–α-amylase complex was mainly driven by van der Waals and hydrogen bonds.

xanthine oxidase (XO) [7] = target: T1, xanthine oxidase (XO); test: CD spectra: secondary structure of XO; set-up: species or system bovine
Experimental: The CD spectrometer (Bio−Logic MOS 450, Claix, France) was used to determine the CD spectra to analyze the effects of ECG on the secondary structure of XO. The free XO (1.0 μM) and its mixed solutions with different molar ratios ([ECG]/[XO], 0:1, 10:1, 20:1 and 40:1) were prepared, and then the CD spectra of the samples in the range of 190−250 nm were measured in a nitrogen stream. The specific secondary structure contents were analyzed by our previous study.

xanthine oxidase (XO) [8] = target: T1, xanthine oxidase (XO); test: Fluorescence microscopy imaging of XO; set-up: species or system bovine; conditions: XO 1.0 μM; ECG 40.0 μM
Experimental: The free XO solution and the mixture of ECG and XO were prepared and incubated for 1h at room temperature. The appropriate amount of samples was placed on a microscope slide, and then the structural changes of XO induced by ECG were observed through a fluorescent inverted microscope with an excitation light of FBW (IX73, Olympus, Japan).

XO = conditions: cited from earlier work
polyphenoloxidase = system: polyphenoloxidase; set-up: method as in earlier work; conditions: ref 41 (Sae-Leaw et al.); cited from earlier work
[9] = previous study of the authors, read-out: IC50 for inhibiting XO activity
[10] = read-out: IC50 for inhibiting XO activity

T1 sequence (P80457 whole entry): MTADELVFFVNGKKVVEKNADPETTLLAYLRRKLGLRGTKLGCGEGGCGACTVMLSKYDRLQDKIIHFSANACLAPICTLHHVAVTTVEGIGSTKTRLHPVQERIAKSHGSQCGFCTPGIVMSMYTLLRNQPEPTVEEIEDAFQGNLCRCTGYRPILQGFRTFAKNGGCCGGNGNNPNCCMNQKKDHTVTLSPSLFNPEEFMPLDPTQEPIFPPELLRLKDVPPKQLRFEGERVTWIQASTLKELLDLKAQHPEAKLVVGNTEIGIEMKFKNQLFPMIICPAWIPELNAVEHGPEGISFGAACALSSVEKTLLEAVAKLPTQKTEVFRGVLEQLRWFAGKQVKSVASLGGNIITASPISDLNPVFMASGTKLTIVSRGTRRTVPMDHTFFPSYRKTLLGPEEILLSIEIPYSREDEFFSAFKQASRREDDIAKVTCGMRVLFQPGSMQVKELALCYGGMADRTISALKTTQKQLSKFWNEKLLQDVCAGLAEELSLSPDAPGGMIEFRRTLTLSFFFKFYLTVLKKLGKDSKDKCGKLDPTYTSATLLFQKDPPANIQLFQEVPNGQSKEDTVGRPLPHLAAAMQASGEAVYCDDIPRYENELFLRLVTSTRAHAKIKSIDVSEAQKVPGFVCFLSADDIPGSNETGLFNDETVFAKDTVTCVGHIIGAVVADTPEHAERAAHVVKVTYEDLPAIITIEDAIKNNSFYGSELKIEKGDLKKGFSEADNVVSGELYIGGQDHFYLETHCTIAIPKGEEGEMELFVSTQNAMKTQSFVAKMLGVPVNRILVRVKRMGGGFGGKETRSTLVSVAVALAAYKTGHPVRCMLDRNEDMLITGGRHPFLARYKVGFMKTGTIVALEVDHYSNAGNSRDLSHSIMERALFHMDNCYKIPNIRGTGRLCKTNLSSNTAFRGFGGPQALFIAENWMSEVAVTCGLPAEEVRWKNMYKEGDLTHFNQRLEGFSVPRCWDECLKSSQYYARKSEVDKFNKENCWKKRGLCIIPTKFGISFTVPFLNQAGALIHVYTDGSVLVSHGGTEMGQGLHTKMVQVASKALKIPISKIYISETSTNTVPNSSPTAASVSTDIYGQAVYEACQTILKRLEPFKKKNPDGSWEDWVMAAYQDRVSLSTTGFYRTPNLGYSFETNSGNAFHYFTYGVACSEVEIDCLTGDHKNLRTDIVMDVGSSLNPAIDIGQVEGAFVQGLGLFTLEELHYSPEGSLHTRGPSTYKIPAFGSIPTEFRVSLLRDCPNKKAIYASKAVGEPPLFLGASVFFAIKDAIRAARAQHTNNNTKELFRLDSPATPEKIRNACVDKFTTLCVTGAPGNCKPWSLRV

IC50 (xanthine oxidase (XO) [1]; pH 7.4, XO 0.075 μM, xanthine 50.0 μM, read-out: IC50 for inhibiting XO activity): 19.3 ± 0.45 µM
inhibition type (xanthine oxidase (XO) [2]; Lineweaver–Burk plots): mixed inhibitor
αKi (xanthine oxidase (XO) [2]; XO−xanthine complex): 82.4 ± 0.70 µM
Ki (xanthine oxidase (XO) [2]; dissociation constant, free XO): 5.27 ± 0.24 µM
reversibility of inhibition (xanthine oxidase (XO) [2]; plots of ν vs. [XO]): reversibly inhibited
IC50 (xanthine oxidase (XO) [5]; read-out: dose at which relative inhibition rate of production of O2− radical reached 50%): 18.5 µM
relative inhibition rate of generation of O2− radical from XO catalysis (final plateau) (xanthine oxidase (XO) [5]; xanthine 0.1, 0.2, 0.5 mM): 90%
n values (xanthine oxidase (XO) [6]; 25, 31 and 37 °C): ~1
Kq (quenching rate constant) (xanthine oxidase (XO) [6]; 25, 31 and 37 °C, compared with maximum scattering collision rate constant): > 2e+10 M⁻¹ s⁻¹
Kd (xanthine oxidase (XO) [6]; 25, 31 and 37 °C, read-out: binding constant Ka, magnitude): ~100 µM
Ksv (xanthine oxidase (XO) [6]; 298 K): 1.76 ± 0.02 ×10^4 L mol^−1
n (number of binding sites) (xanthine oxidase (XO) [6]; 298 K): 0.91 ± 0.01
ΔG° (xanthine oxidase (XO) [6]; 298 K): -5.813 ± 0.0956 kcal/mol
Kd (xanthine oxidase (XO) [6]; 298 K, read-out: Ka (binding constant) (converted)): 54.9 µM
Ksv (xanthine oxidase (XO) [6]; 304 K): 1.32 ± 0.03 ×10^4 L mol^−1
n (number of binding sites) (xanthine oxidase (XO) [6]; 304 K): 0.95 ± 0.02
ΔG° (xanthine oxidase (XO) [6]; 304 K): -5.81 ± 0.0837 kcal/mol
Kd (xanthine oxidase (XO) [6]; 304 K, read-out: Ka (binding constant) (converted)): 66.2 µM
Ksv (xanthine oxidase (XO) [6]; 310 K): 1.15 ± 0.01 ×10^4 L mol^−1
n (number of binding sites) (xanthine oxidase (XO) [6]; 310 K): 0.87 ± 0.02
ΔG° (xanthine oxidase (XO) [6]; 310 K): -5.805 ± 0.0669 kcal/mol
Kd (xanthine oxidase (XO) [6]; 310 K, read-out: Ka (binding constant) (converted)): 81.3 µM
ΔH° (xanthine oxidase (XO) [6]; van 't Hoff, 298–310 K): -5.987 ± 0.0478 kcal/mol
ΔS° (xanthine oxidase (XO) [6]; van 't Hoff, 298–310 K): −2.44 ± 0.07 J mol^−1 K^−1
Structure (SMILES): O=C(O[C@@H]1Cc2c(O)cc(O)cc2O[C@@H]1c1ccc(O)c(O)c1)c1cc(O)c(O)c(O)c1 [ECG, Epicatechin gallate]
activity of XO at high ECG concentration (xanthine oxidase (XO) [1]; ECG 300 μM): almost completely inhibited
DPPH radical scavenged [3]: 90%
scavenging rate of O2− radical generated by PMS–NADH system [4]: 55.64%
decrease of 3D fluorescence intensity of XO peak 1 (λex/λem = 280/340 nm) (xanthine oxidase (XO) [6]; XO 1.0 μM, ECG 15.0 μM): 34.36%
decrease of 3D fluorescence intensity of XO peak 2 (λex/λem = 230/335 nm) (xanthine oxidase (XO) [6]; XO 1.0 μM, ECG 15.0 μM): 47.59%
Random Coil content of XO (xanthine oxidase (XO) [7]; [ECG]:[XO] 10:1): 25.12 ± 0.69%
α-Helix content of XO (xanthine oxidase (XO) [7]; [ECG]:[XO] 10:1): 10.83 ± 0.51%
β-Sheet content of XO (xanthine oxidase (XO) [7]; [ECG]:[XO] 10:1): 42.51 ± 0.41%
β-Turn content of XO (xanthine oxidase (XO) [7]; [ECG]:[XO] 10:1): 21.65 ± 0.94%
Random Coil content of XO (xanthine oxidase (XO) [7]; [ECG]:[XO] 20:1): 24.03 ± 0.31%
α-Helix content of XO (xanthine oxidase (XO) [7]; [ECG]:[XO] 20:1): 10.96 ± 0.62%
β-Sheet content of XO (xanthine oxidase (XO) [7]; [ECG]:[XO] 20:1): 43.41 ± 0.74%
β-Turn content of XO (xanthine oxidase (XO) [7]; [ECG]:[XO] 20:1): 21.59 ± 0.13%
Random Coil content of XO (xanthine oxidase (XO) [7]; [ECG]:[XO] 40:1): 22.51 ± 0.24%
α-Helix content of XO (xanthine oxidase (XO) [7]; [ECG]:[XO] 40:1): 11.83 ± 0.93%
β-Sheet content of XO (xanthine oxidase (XO) [7]; [ECG]:[XO] 40:1): 45.02 ± 0.22%
β-Turn content of XO (xanthine oxidase (XO) [7]; [ECG]:[XO] 40:1): 21.39 ± 0.25%
average area of green bright spots of XO with ECG (xanthine oxidase (XO) [8]): 172.31 μm^2
IC50 (XO; ref 12 (Yuan et al.), read-out: IC50 inhibiting XO): 0.26 µM
inhibition type on polyphenoloxidase (polyphenoloxidase): mixed inhibitory effect

Structure (SMILES): O=c1c(O)c(-c2cc(O)c(O)c(O)c2)oc2cc(O)cc(O)c12 [myricetin]
IC50 (XO; [9]): 8.66 µM

Structure (SMILES): O=c1c(O)c(-c2ccc(O)cc2)oc2cc(O)cc(O)c12 [kaempferol]
inhibition manner on XO (XO; previous study of the authors): reversibly inhibited XO activity in a competitive manner

Structure (SMILES): O=C(O)/C=C/c1ccc(O)c(O)c1 [caffeic acid]
IC50 (XO; [10]): 7160 µM

Structure (SMILES): O=c1c(O)c(-c2ccc(O)c(O)c2)oc2cc(O)cc(O)c12 [quercetin]
IC50 (XO; [9]): 7.23 µM

Structure (SMILES): O=C(/C=C/c1ccc(O)c(O)c1)O[C@@H]1C[C@](O)(C(=O)O)C[C@@H](O)[C@H]1O [chlorogenic acid]
IC50 (XO; [10]): 6490 µM
